Converted amounts (≈) assume the structure as drawn. Read-outs that look alike come from different tables or passages of the source.
Experiments:
[1] = test system: breast adenocarcinoma cancer cell lines (MDA); test: MTT cytotoxicity assay, MDA cells; conditions: Homo sapiens, 24 h, read-out: IC50 Values, cytotoxicity, MDA
Experimental: (§1) The cells were allowed to grow to 90% confluency in an incubator set at 37 °C containing 5% CO2, before they were trypsinized and cultured in 96-well tissue culture plates. Stock and final concentrations of the compounds were prepared in the culture media.
(§2) Just 5 h before the elapse of 24 h, 10 µL of 5 mg/mL MTT solution was added to each well, and the plates were further incubated. At the end of the incubation period, the media was removed from each well and replaced with 50 µL of DMSO. The plates were shaken on a rotating shaker for 10 min before taking readings at 560 nm using a microplate reader (Elisa Plate Reader, BioTek Instruments, Inc., Winooski, VT, USA). […] IC50 values were calculated from the graphs as compound concentrations that reduced the absorbance at 560 nm by 50% of the untreated control wells. To exclude background readings, three wells were seeded with untreated cells in which MTT was not added. Assays were performed in triplicate to ensure reproducibility. The percentage inhibitions of cell proliferation were calculated using the following formula:% Cytotoxicity = ((A − B)/A) × 100 where: A is the absorbance of the negative control (untreated cells). B is the absorbance of the treated cells.
(§3) Data were presented as the cumulative mean of each compound. Each compound was run in triplicate. GraphPad Prism (version 5) was used for statistical analysis of all data. For all the data, one-way analysis of variance (ANOVA) followed by Bonferroni’s multiple comparison tests was used to compare the means of one group with every other group. Statistical significance was set at 5%; thus, a p-value ≤ 0.05 was considered significant. Concentrations that inhibit cell proliferation by 50% (IC50) were calculated using Graphpad Prism 5 software.

[2] = test system: human liver cancer cell lines (HepG2); test: MTT cytotoxicity assay, HepG2 cells; conditions: HepG2, 24 h, read-out: IC50 Values, cytotoxicity, HepG2
Experimental: as §1, §2, §3

[3] = MTT cytotoxicity assay, KMST-6 cells; assay type: cell-based, human; conditions: human
Experimental: (§4) Assays were performed in triplicate to ensure reproducibility. […] B is the absorbance of the treated cells.
(§5) Each compound was run in triplicate.

[4] = test system: HeLa cells; set-up: method as in PMID 24658565; conditions: read-out: cytotoxic IC50, HeLa; cited from earlier work
[5] = test system: MDA-MB-231; conditions: cited from earlier work
[6] = test system: human prostate cancer cell lines (PC3); test: MTT cytotoxicity assay, PC3 cells
Experimental: as §1, §2
Data were presented as the cumulative mean of each compound. Each compound was run in triplicate. GraphPad Prism (version 5) was used for statistical analysis of all data. […]

[7] = test system: MCF-7 cells; set-up: method as in PMID 24658565; conditions: read-out: cytotoxic IC50, MCF-7; cited from earlier work
[8] = test system: HT-29 cells; set-up: method as in PMID 24658565; conditions: read-out: cytotoxic IC50, HT-29; cited from earlier work
[9] = test system: Plasmodium; set-up: method as in PMID 24108397; conditions: cited from earlier work
[10] = test system: non-cancerous human fibroblast cell lines (KMST-6); test: MTT cytotoxicity assay, KMST-6 cells; assay type: cell-based; conditions: MTT, 24 h, 0.156 µM to 10 µM, triplicate; non-cancerous cells
Experimental: as §4, §5

[11] = test system: HEK293; set-up: method as in PMID 24108397; conditions: cited from earlier work
[12] = test system: HepG2; set-up: method as in PMID 24108397; conditions: cited from earlier work
[13] = test system: Plasmodium berghei; set-up: method as in PMID 24108397; conditions: mice; cited from earlier work
[14] = test system: Hep-G2; conditions: cited from earlier work
[15] = test system: Vero cells and human liver cancer cells; set-up: method as in earlier work; conditions: cited from earlier work
[16] = test system: Funtumia africana; set-up: method as in earlier work; conditions: cited from earlier work
[17] = test system: HL60 cells; set-up: method as in doi:10.1007/s00044-014-1093-y; conditions: cited from earlier work
[18] = test system: human breast cancer cells (MDA-MB-231); set-up: method as in PMID 28231262; conditions: cited from earlier work

In the case of `COC(=O)[C@]12CC[C@@H](C)[C@H](C)C1C1=CCC3[C@@]4(C)CC[C@H](OC(C)=O)C(C)(C)C4CC[C@@]3(C)[C@]1(C)CC2` (some centres unmarked) [Compound 5, 3-acetylursolic-methylate], the IC50 [1] is reported as 1.9 µM, the IC50 [2] is reported as 0.85 µM and the IC50 at 24 h [3] is reported as > 5 µM.
For `C[C@H]1[C@H](C)CC[C@]2(C(=O)O)CC[C@]3(C)C(=CC[C@@H]4[C@@]5(C)CC[C@H](O)C(C)(C)[C@@H]5CC[C@]43C)[C@H]12` [Compound 1, ursolic acid], the IC50 [4] is listed as 10 µM, the “concentration that inhibits cell proliferation” value [5] is listed as ≥ 160 µg/mL and the IC50 ([6]; read-out: IC50 Values, cytotoxicity, PC3, MTT, 24 h, 0.156 µM to 10 µM, triplicate) is listed as 0.262 µM. For the same molecule, the IC50 [7] was 20 µM, the IC50 [8] was 10 µM and the “anti-plasmodial IC50” value [9] was 6.8 µg/mL. The IC50 [1] was > 5 µM, the IC50 [2] was 0.261 µM and the “IC50 Values, cytotoxicity, KMST-6” value [10] was “ns”.
In the case of `CC(=O)O[C@H]1CC[C@]2(C)[C@H]3CC=C4[C@@H]5[C@@H](C)[C@H](C)CC[C@]5(C(=O)O)CC[C@@]4(C)[C@]3(C)CC[C@H]2C1(C)C` [Compound 3, 3-O-acetyl ursolic acid], the “IC50 Values, cytotoxicity, PC3” value [6] is given as “ns”, the “cytotoxicity IC50, HEK293” value [11] is given as 366.00 µg/mL and the “cytotoxicity IC50, HepG2” value [12] is given as 566.09 µg/mL. The decrease of parasitemia [13] was 94.01%, the IC50 [1] was 3.93 µM and the “cytotoxicity IC50, Hep-G2” value [14] was 4.73 µg/mL. For the same molecule, the IC50 [2] was 0.85 µM and the IC50 at 24 h [3] was 4.88 µM.
In the case of `COC(=O)[C@]12CC[C@@H](C)[C@H](C)[C@H]1C1=CC[C@@H]3[C@@]4(C)CC[C@H](O)C(C)(C)[C@@H]4CC[C@@]3(C)[C@]1(C)CC2` [Compound 4, ursolic-28-methylate], the “cytotoxicity IC50” value [15] is given as 10.4 µg/mL, the MIC [16] is given as 62.5 µg/mL (≈ 133 µM) and the IC50 [1] is given as 2.48 µM. The IC50 [2] was 1.6 µM, the IC50 at 24 h [3] was > 5 µM and the “ED50, HL60” value [17] was 22.7 µg/mL (≈ 48.2 µM).
In the case of `COC1CCC2(C)C3CCC4(C)C(=CCC5(C)CCC(C)(C)CC54)C3(C)CCC2C1(C)C` (centres unmarked) [sawamilletin], the “anti-plasmodial IC50” value ([9]; unit not given) is given as > 100.
For `CC1(C)CC[C@]2(C)CC=C3[C@]4(C)CC[C@H]5C(C)(C)[C@@H](O)CC[C@]5(C)[C@H]4CC[C@@]3(C)[C@@H]2C1` [taraxerol], the “anti-plasmodial IC50” value ([9]; unit not given) is given as > 100.
In the case of `CC1(C)CC[C@]2(C(=O)O)CC[C@]3(C)C(=CC[C@@H]4[C@@]5(C)CC[C@H](O)C(C)(C)[C@@H]5CC[C@]43C)[C@@H]2C1` [Compound 2, oleanolic acid], the “effect on cell migration” value [18] is listed as “clearly enhanced cell migration”, the IC50 [1] is listed as 4.48 µM and the IC50 [2] is listed as 1.2 µM. The IC50 at 24 h ([3]; KMST-6 non-cancerous fibroblast cells, MTT, 24 h, 0.156 µM to 10 µM, triplicate, non-cancerous cells, read-out: IC50 Values, cytotoxicity, KMST-6) was 3.88 µM.

— paper PMC12562781 (International Journal of Molecular Sciences, 2025)
